Assay results from patent EP0760362B1, “DIAMINOMETHYLIDENE DERIVATIVE” (NISSHIN SEIFUN GROUP INC., priority 1994, dated 1995).

Tested on: longitudinal muscle sample (including myenteric plexus) prepared from the ileum
Assay: Acetylcholine-release promoting action: contraction of electrically stimulated ileal longitudinal muscle in Magnus' tube
Design: species or system guinea pig
Details: increase ratio in contraction by electrical stimulation, isometrically recorded
Procedure: Acetylcholine-release promoting action of the present compounds in the gastrointestinal tract was investigated according to the following procedure. A longitudinal muscle sample (including myenteric plexus) was prepared from the ileum excised from guinea pig and suspended in Magnus' tube. This sample was perfused in a physiological salt solution and stimulated by the electric current via platinum electrodes. […] This contraction was isometrically recorded. Accordingly, the drug capable of accelerating the release of acetylcholine could enhance the contraction caused by electric stimulation only. Evaluation of the compounds was represented in terms of increase ratio in contraction by electrical stimulation. The tested compounds are shown in terms of the numbers of the corresponding Examples.

## CC(C)CNC(NCC1CN(Cc2ccc(F)cc2)CCO1)=C(C#N)C#N (centres unmarked) [Example 5, 2-[4-(p-Fluorobenzyl)-2-morpholinylmethylamino]-2-isobutylamino-1,1-ethylenedicarbonitrile]
10^-5M
  Contraction increase rate (%): 4.9%

## CNC(NC1CC2COCC(C1)N2CCCOc1ccc(F)cc1)=C(C#N)C#N (stereo not drawn) [Example 16, 2-[endo-9-[3-(p-Fluorophenoxy)propyl]-9-aza-3-oxabicyclo-[3.3.1]non-7-ylamino]-2-methylamino-1,1-ethylenedicarbonitrile]
10^-7M
  Contraction increase rate (%): 3.1%

## N#CC(C#N)=C(NCC1CN(Cc2ccc(F)cc2)CCO1)NC1CCCCC1 (centres unmarked) [Example 2, 2-Cyclohexylamino-2-[4-(p-fluorobenzyl)-2-morpholinylmethylamino]-1,1-ethylenedicarbonitrile]
10^-5M
  Contraction increase rate (%): 5.3%

## CNC(=O)NCC1CN(Cc2ccc(F)cc2)CCO1 (centres unmarked) [Example 19, 1-[4-(p-Fluorobenzyl)-2-morpholinylmethyl]-3-methylurea]
10^-7M
  Contraction increase rate (%): 9.8%

## CCOC(=O)C(C#N)=C(NCC(C)C)NCC1CN(Cc2ccc(F)cc2)CCO1 (centres unmarked) [Example 8, Ethyl 3-[4-(p-fluorobenzyl)-2-morpholinylmethylamino]-3-isobutylamino-2-cyanoacrylate]
10^-5M
  Contraction increase rate (%): 32.4%
10^-7M
  Contraction increase rate (%): 8.5%

## CCOC(=O)C(C#N)=C(NCC1CN(Cc2ccc(F)cc2)CCO1)NC1CCCCC1 (centres unmarked) [Example 9, Ethyl 3-cyclohexylamino-3-[4-(p-fluorobenzyl)-2-morpholinylmethylamino]-2-cyanoacrylate]
10^-5M
  Contraction increase rate (%): 31.9%
10^-7M
  Contraction increase rate (%): 8.7%

## CNC(=O)NC1CC2COCC(C1)N2Cc1ccc(F)cc1 (stereo not drawn) [Example 20, 1-[endo-9-(p-Fluorobenzyl)-9-aza-3-oxabicyclo[3.3.1]non-7-yl]-3-methylurea]
10^-7M
  Contraction increase rate (%): 4.2%

## N#CC(C#N)=C(NCc1ccc(F)cc1)NCC1CN(Cc2ccc(F)cc2)CCO1 (centres unmarked) [Example 13, 2-(p-Fluorobenzylamino)-2-[4-(p-fluorobenzyl)-2-morpholinylmethylamino]-1,1-ethylenedicarbonitrile]
10^-5M
  Contraction increase rate (%): 15.0%
10^-7M
  Contraction increase rate (%): 4.9%

## CCOC(=O)C(C#N)=C(NCCOCCNCc1ccc(F)cc1)NC1CCCCC1 [Example 12, Ethyl 3-cyclohexylamino-3-[7-(p-fluorophenyl)-6-aza-3-oxaheptylamino]-2-cyanoacrylate]
10^-5M
  Contraction increase rate (%): 7.9%
10^-7M
  Contraction increase rate (%): 0.8%

## CCOC(=O)C(C#N)=C(NCC1CN(Cc2ccc(F)cc2)CCO1)Nc1ccc(OC)cc1 (centres unmarked) [Example 10]
10^-5M
  Contraction increase rate (%): 11.8%
10^-7M
  Contraction increase rate (%): 9.1%

## CNC(NC1CC2COCC(C1)N2Cc1ccc(F)cc1)=C(C#N)C#N (stereo not drawn) [Example 15, 2-[endo-9-(p-Fluorobenzyl)-9-aza-3-oxabicyclo[3.3.1]non-7-ylamino]-2-methylamino-1,1-ethylenedicarbonitrile]
10^-7M
  Contraction increase rate (%): 3.9%

## N#CC(C#N)=C(NCc1ccccc1)NCC1CN(Cc2ccc(F)cc2)CCO1 (centres unmarked) [Example 1, 2-Benzylamino-2-[4-(p-fluorobenzyl)-2-morpholinylmethylamino]-1,1-ethylenedicarbonitrile]
10^-5M
  Contraction increase rate (%): 12.3%
10^-7M
  Contraction increase rate (%): 3.9%

## CNC(=C[N+](=O)[O-])NC1CC2COCC(C1)N2Cc1ccc(F)cc1 (stereo not drawn) [Example 17, N-[endo-9-(p-Fluorobenzyl)-9-aza-3-oxabicyclo[3.3.1]non-7-yl]-N'-methyl-2-nitrovinylidene-1,1-diamine]
10^-5M
  Contraction increase rate (%): 5.7%
10^-7M
  Contraction increase rate (%): 3.2%

## CCOC(=O)C(C#N)=C(NCC1CN(Cc2ccc(F)cc2)CCO1)Nc1ccccc1 (centres unmarked) [Example 7, Ethyl 3-[4-(p-fluorobenzyl)-2-morpholinylmethylamino]-3-phenylamino-2-cyanoacrylate]
10^-7M
  Contraction increase rate (%): 0.7%

## CCOC(=O)C(C#N)=C(NCc1ccccc1)NCC1CN(Cc2ccc(F)cc2)CCO1 (centres unmarked) [Example 6, Ethyl 3-benzylamino-3-[4-(p-fluorobenzyl)-2-morpholinylmethylamino]-2-cyanoacrylate]
10^-5M
  Contraction increase rate (%): 20.3%
10^-7M
  Contraction increase rate (%): 3.0%
